“Also recorded” adds a separate entry of the source.
Tests used:
[1] = quantification of MB-005 in mouse eyes by LC-ESI-MS/MS; format: in vivo; details: 1 mg dose oral gavage
Method: MB-005 (1 mg/mouse) was administrated by oral gavage to C57BL/6J mice, which were then kept in the dark for 4-24 h. Then, mice were euthanized, and their eyes were homogenized in 1 ml of 10 mM sodium phosphate buffer, pH 7.4, containing 50% methanol (v/v). The resulting mixture was extracted with 4 ml EtOAc. […] This solution (100 μl) was analyzed by liquid chromatography—electrospray ionization—MS/MS (LC-ESI-MS/MS) (4.6 mm×150 mm; Agilent ZORBAX Eclipse XDB-C18) with a gradient of acetonitrile in water (0%-100% in 30 min) as the eluent at a flow rate of 0.5 ml/min.
To confirm the ocular distribution of this compound series, we directly measured the quantity of MB-005 in the eye by mass spectrometry after a 1 mg dose. […] This minimal change in ocular MB-005 concentration contrasts with the ˜3-fold greater inhibition of visual cycle function observed at 4 h versus 24 h for this compound.

[2] = test system: visual chromophore regeneration in C57BL6J mouse eyes; test: visual chromophore recovery assay (ocular 11-cis-retinal by HPLC after bleach); format: in vivo
Method: FIG. 4 illustrates inhibition of visual chromophore regeneration in C57BL6J mouse eyes by MB compounds. The MB drugs were administrated to mice by oral gavage 24 h prior to light exposure for 10 min. Then all mice recovered under darkness for 6 h.
Abca4^−/−Rdh8^−/− mice on a C57BL/6J background were generated as previously described. Male and female WT mice with C57BL/6J backgrounds were obtained from The Jackson Laboratory. Abca4^−/−Rdh8^−/− mice used in this study were homozygous for the Leu450 allele of Rpe65 as determined by a genotyping protocol published previously and free of Crb1/rd8 and rd/rd mutations Animals were housed either in the animal facility at the Case Western Reserve University School of Medicine, where they received a standard chow diet (LabDiet 5053) and were maintained under a 12-h light (˜300 lux) and 12-h dark cycle or at the Cole Eye Institute animal facility where they were. Mice were dark adapted overnight prior to all experiments. A cohort of Rdh8^−/−Abca4^−/− or C57BL/6J mice was used when they reached the age of 1 to 2 months, and both sexes were used evenly. All tested primary amines were suspended in 100 μl soybean oil with less than 10% (v/v) DMSO and were administered by oral gavage with a 22-gauge feeding needle. Experimental manipulations in the dark were done under dim red light transmitted through a Kodak No. 1 Safelight Filter (transmittance >560 nm).
After bright light exposure resulting in photoactivation of 95% of rhodopsin, mice were kept in the dark for 6 h. Then, the animals were euthanized and their eyes were collected and homogenized in 10 mM sodium phosphate buffer, pH 7.4, containing 50% methanol (v/v) and 40 mM hydroxylamine. The resulting mixture was extracted with 4 ml of hexanes.
Next, we tested the effects of the MB compound series on retinoid cycle function in the living mouse. […] After the light treatment, mice were allowed to dark adapt for 6 h before their ocular retinoid content was determined by HPLC. […] To examine the possibility that the lack of MB-008 efficacy at 24 h was due to insufficient concentrations resulting from a shorter elimination half-life or poorer bioavailability, we repeated the experiment with the mice subjected to light exposure 4 h after MB-008 administration. A 100 μg dose of MB-008 suppressed visual chromophore regeneration by ˜80%, supporting the idea that the retinal concentration of MB-008 could be sub-effective at the longer post-treatment light challenge.

In the case of `CC(C)c1cc(OCC2CCCCC2)cc(C(O)CCN)c1` (stereo not shown) [MB-005, 3-Amino-1-(3-(cyclohexylmethoxy)-5-isopropylphenyl)propan-1-ol], the “ocular level of MB-005” value ([1]; 6 h after treatment) was about 140 ng/eye, the “ocular level of MB-005” value ([1]; 24 h post-treatment time point versus 6 h) was “declined only slightly” and the “effect on 11-cis-retinal recovery / visual cycle function” value ([2]; 500 μg (0.5 mg/mouse) oral gavage 24 h before light exposure, 6 h dark) was “minimal effects; also recorded: no measurable effect”. For the same compound, the visual cycle function ([2]; 2 mg/mouse oral gavage) was “severely impaired”, the “fold greater inhibition of visual cycle function at 4 h versus 24 h” value ([2]; 4 h versus 24 h between dose and light) was about 3 fold and the “effect of shortening the time between drug administration and the light challenge” value ([2]; shorter interval versus 24 h) was “enhanced the inhibitory effects”. The “inhibition of 11-cis-retinal recovery (suppression of visual chromophore regeneration)” value ([2]; two-fold higher dose than 500 μg (1 mg per mouse), oral gavage 24 h before light exposure) was ~50% and approximately 60%.

— patent US12144788B2, “Visual cycle modulators” (CASE WESTERN RESERVE UNIVERSITY, priority 2017, dated 2024)
